The results in this text go back to patent US7605168B2 (Plexxikon, Inc., priority 2004, dated 2009).

What all share (format): biochemical
For experiment [1], the target named is T1, PDE4B: catalytic domain of human PDE4B from S152-S528 (Homo sapiens, UniProt Q07343).
T1 construct: The catalytic domain of human PDE4B from S152-S528; His6 (N, cleaved yes); thrombin cleavage site (N, cleaved yes); made in house; host or cells: E. coli BL21 (DE3) RIL
Kind of experiment: PDE4 IC50 determination by Scintillation Proximity Assay (SPA), PDE4B catalytic domain. The settings on record: [3H]cAMP SPA, 30 min at 30° C. As to the method: (§1) IC50s were determined by Scintillation Proximity Assay (SPA). The principle of the assay is based on the fact that cAMP, the PDE4 substrate, binds weakly to Yittrium Silicate SPA beads, whereas AMP, the product of PDE4 hydrolysis binds strongly. Thus, the extent of PDE4 hydrolysis of a sample of [^3H]cAMP can be measured because only the [^3H]AMP produced by PDE4 hydrolysis will bind to the SPA beads and produce a scintillation signal.
Enzyme was stored in 50% glycerol at −20°.
(§2) In addition to the compound dilutions, each assay plate contained control wells with 1 μl of DMSO (to define 0% enzyme inhibition) or 1 μl of 200 μM roflumilast (to define 100% enzyme inhibition). Using a Beckman FX robot, 10 μl of [^3H] cAMP (Amersham TRK559) at […] in assay buffer (50 mM Tris, pH 7.5; 8.3 mM MgCl; 1.7 mM EGTA; 0.01% BSA) was transferred to each assay well. Next, 10 μl of PDE4 enzyme in assay buffer was added and the plates were shaken for 30 s. at 1000 rpm to start the cAMP hydrolysis reaction. The concentrations of enzyme used were: PDE4B, 80 ng/ml; PDE4D, 4 ng/ml; PDE4B2, 2.5 μl of 50% glycerol stock/ml; PDE4D5 0.083 μl of 50% glycerol stock/ml. Assay plates were covered and incubated for 30 min. at 30° C. Reactions were stopped by robotic addition of 10 μl of 5 mg/ml SPA beads (Amersham RPNQ0013) in 18 mM ZnSO4. The assay plates were covered with clear plastic film, centrifuged for 1 min. at 1000 RPM to settle the SPA beads, and counted using a Wallac TriLux scintillation counter. IC50's were calculated from the raw assay data by non-linear regression curve fitting using the Assay Explorer software package from MDL.

In experiment [2] the target is T2, PDE4D5: full-length human PDE4D5 isozyme (Homo sapiens, UniProt Q08499).
T2 construct: made in house; host or cells: baculovirus infected insect cells (pFastBacHT)
Kind of experiment: PDE4 IC50 determination by Scintillation Proximity Assay (SPA), full-length PDE4D5. The settings on record: cell lysate, [3H]cAMP SPA. As to the method:
(§3) The enzyme was not purified from the cell lysates, so enzyme concentrations were not determined. Enzyme was stored in 50% glycerol at −20°.
as §1, §2

Experiment [3] addresses T3, PDE4B2: full-length human PDE4B2 isozyme (Homo sapiens, UniProt Q07343).
T3 construct: made in house; host or cells: baculovirus infected insect cells (pFastBacHT)
Kind of experiment: PDE4 IC50 determination by Scintillation Proximity Assay (SPA), full-length PDE4B2. As to conditions: cell lysate, [3H]cAMP SPA. As to the method:
as §3, §1, §2

T3 sequence (Q07343 with tags, fused parts or gaps isoform Q07343-2): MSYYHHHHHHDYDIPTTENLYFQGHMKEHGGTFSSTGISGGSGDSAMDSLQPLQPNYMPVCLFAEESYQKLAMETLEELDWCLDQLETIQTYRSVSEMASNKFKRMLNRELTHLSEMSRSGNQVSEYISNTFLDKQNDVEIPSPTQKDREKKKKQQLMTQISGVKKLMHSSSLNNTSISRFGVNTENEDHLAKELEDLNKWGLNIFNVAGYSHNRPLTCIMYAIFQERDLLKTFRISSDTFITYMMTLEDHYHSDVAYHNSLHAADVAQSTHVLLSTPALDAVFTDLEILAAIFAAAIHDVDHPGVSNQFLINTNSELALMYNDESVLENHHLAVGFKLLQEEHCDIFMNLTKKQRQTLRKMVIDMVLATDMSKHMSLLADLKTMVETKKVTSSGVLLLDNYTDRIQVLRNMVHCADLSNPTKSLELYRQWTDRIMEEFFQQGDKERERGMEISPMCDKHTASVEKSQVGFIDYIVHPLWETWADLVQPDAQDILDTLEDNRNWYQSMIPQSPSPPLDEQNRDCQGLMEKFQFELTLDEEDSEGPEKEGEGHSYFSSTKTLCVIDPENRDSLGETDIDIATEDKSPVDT
T1 sequence (Q07343 324-700): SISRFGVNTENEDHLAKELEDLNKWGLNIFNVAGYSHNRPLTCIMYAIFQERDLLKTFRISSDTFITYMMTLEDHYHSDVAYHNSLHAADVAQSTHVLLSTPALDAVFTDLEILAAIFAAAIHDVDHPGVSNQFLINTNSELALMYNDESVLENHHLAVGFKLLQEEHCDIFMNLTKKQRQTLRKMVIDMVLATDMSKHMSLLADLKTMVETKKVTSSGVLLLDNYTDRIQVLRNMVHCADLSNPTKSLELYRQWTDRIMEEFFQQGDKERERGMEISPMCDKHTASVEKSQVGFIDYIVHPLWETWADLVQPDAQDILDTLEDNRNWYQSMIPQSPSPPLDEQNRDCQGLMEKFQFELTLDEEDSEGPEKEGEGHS
T2 sequence (Q08499 with tags, fused parts or gaps isoform Q08499-6): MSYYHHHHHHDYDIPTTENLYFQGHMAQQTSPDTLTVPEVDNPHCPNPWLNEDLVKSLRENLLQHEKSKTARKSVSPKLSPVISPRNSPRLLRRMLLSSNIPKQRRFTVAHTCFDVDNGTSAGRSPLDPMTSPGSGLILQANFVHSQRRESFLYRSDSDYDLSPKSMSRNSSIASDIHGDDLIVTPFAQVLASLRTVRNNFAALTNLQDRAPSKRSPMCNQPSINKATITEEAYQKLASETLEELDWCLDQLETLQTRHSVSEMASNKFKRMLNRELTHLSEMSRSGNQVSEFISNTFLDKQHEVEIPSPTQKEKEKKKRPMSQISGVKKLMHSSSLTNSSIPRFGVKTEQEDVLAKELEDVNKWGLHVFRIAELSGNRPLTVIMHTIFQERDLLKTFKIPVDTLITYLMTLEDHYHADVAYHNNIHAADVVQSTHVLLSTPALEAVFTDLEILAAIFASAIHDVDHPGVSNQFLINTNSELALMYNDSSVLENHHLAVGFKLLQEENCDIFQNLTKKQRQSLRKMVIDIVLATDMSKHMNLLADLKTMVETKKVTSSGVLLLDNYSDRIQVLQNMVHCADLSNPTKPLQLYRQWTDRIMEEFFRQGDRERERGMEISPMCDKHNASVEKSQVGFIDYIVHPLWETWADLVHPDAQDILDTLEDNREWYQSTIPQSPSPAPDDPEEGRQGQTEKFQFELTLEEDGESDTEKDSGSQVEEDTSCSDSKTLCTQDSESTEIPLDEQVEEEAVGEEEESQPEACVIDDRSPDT

As for `c1cnc2[nH]cc(-c3ccc4c(c3)OCO4)c2c1` [Compound 90, 3-Benzo[1,3]dioxol-5-yl-1H-pyrrolo[2,3-b]pyridine], the concentration for half-maximal inhibition (IC50) in experiment [1], in experiment [2] and in experiment [3] was > 10 µM in each case.
`CCOC(=O)c1ccc(NC(=O)n2cc(-c3ccc(OC)c(OC)c3)c3cccnc32)cc1` [Compound 33, 4-[3-(3,4-Dimethoxy-phenyl)-pyrrolo[2,3-b]pyridine-1-carbonyl]-amino-benzoic acid ethyl ester]: the half-maximal inhibitory concentration (IC50) in experiment [1] was < 10 µM; in experiment [2], > 10 µM; in experiment [3] it was < 10 µM.
For `COc1ccc(-c2cn(C(=O)Nc3ccc(F)c([N+](=O)[O-])c3)c3ncccc23)cc1OC1CCCC1` [Compound 98, 3-(3-Cyclopentyloxy-4-methoxy-phenyl)-pyrrolo[2,3-b]pyridine-1-carboxylic acid (3-nitro-4-fluoro-phenyl)-amide], the IC50 in experiment [2] and in experiment [3] was < 10 µM each time.
As for `COc1ccc(-c2cn(C(=O)[C@@H]3C[C@H]3c3ccccc3)c3ncccc23)cc1OC` [Compound 108, [3-(3,4-Dimethoxy-phenyl)-pyrrolo[2,3-b]pyridin-1-yl]-((1R,2R)-2-phenyl-trans-cyclopropyl)-methanone], the half-inhibitory concentration (IC50) in experiment [2] and in experiment [3] was < 10 µM throughout.
With `CSc1nccc(-c2cn(S(=O)(=O)c3cccc4cccnc34)c3ncccc23)n1` [Compound 46, 8-[3-(2-Methylsulfanyl-pyrimidin-4-yl)-pyrrolo[2,3-b]pyridine-1-sulfonyl]-quinoline], the IC50 in experiment [1], in experiment [2] and in experiment [3] was < 10 µM each time.
Take `COc1ccc(-c2cn(S(=O)(=O)c3ccc(-c4ccccc4)cc3)c3ncccc23)cc1OC` [Compound 10, 1-(Biphenyl-4-sulfonyl)-3-(3,4-dimethoxy-phenyl)-1H-pyrrolo[2,3-b]pyridine]: the IC50 in experiment [1], in experiment [2] and in experiment [3] was < 10 µM throughout.
In the case of `CCOc1ccc2ccccc2c1C(=O)n1cc(-c2ccc(O)c(OC)c2)c2cccnc21` [Compound 123, (2-Ethoxy-naphthalen-1-yl)-[3-(4-hydroxy-3-methoxy-phenyl)-pyrrolo[2,3-b]pyridin-1-yl]-methanone], the IC50 in experiment [2] and in experiment [3] was < 10 µM throughout.
For the compound `CCOc1ccc(C(=O)n2cc(-c3ccc(OC)c(OC)c3)c3cccnc32)c(OCC)c1` [Compound 111, (2,4-Diethoxy-phenyl)-[3-(3,4-dimethoxy-phenyl)-pyrrolo[2,3-b]pyridin-1-yl]-methanone], the half-inhibitory concentration (IC50) in experiment [1], in experiment [2] and in experiment [3] was < 10 µM each time.
Regarding `COc1ccc(-c2cn(C(=O)Nc3ccc(C(C)=O)cc3)c3ncccc23)cc1OC` [Compound 40, 3-(3,4-Dimethoxy-phenyl)-pyrrolo[2,3-b]pyridine-1-carboxylic acid (4-acetyl-phenyl)-amide], the 50% inhibitory concentration (IC50) in experiment [1], in experiment [2] and in experiment [3] was < 10 µM throughout.
For the compound `COc1ccc(CC(=O)n2cc(-c3ccc(OC)c(OC)c3)c3cccnc32)cc1` [Compound 60, 1-[3-(3,4-Dimethoxy-phenyl)-pyrrolo[2,3-b]pyridin-1-yl]-2-(4-methoxy-phenyl)-ethanone-amide], the IC50 in experiment [1], in experiment [2] and in experiment [3] was < 10 µM each time.
With `COc1ccc(-c2cn(S(=O)(=O)c3cccc4cc(C)cnc34)c3ncccc23)cc1OC` [Compound 13, 8-[3-(3,4-Dimethoxy-phenyl)-pyrrolo[2,3-b]pyridine-1-sulfonyl]-3-methyl-quinoline], the half-maximal inhibitory concentration (IC50) in experiment [1], in experiment [2] and in experiment [3] was < 10 µM throughout.
Consider `COc1ccc(-c2cnc3c(c2)c(C#Cc2ccccc2)cn3S(=O)(=O)c2ccccc2)cc1OC` [Compound 136, 1-Benzenesulfonyl-5-(3,4-dimethoxy-phenyl)-3-phenylethynyl-1H-pyrrolo[2,3-b]pyridine], for which the 50% inhibitory concentration (IC50) in experiment [2] and in experiment [3] was < 10 µM in each case.
Turning to `COC(=O)c1cccc(C#Cc2cn(S(=O)(=O)c3ccccc3)c3ncc(-c4ccc(OC)c(OC)c4)cc23)c1` [Compound 137, 3-[1-Benzenesulfonyl-5-(3,4-dimethoxy-phenyl)-1H-pyrrolo[2,3-b]pyridin-3-ylethynyl]-benzoic acid methyl ester], the concentration for half-maximal inhibition (IC50) in experiment [2] and in experiment [3] was < 10 µM each time.
`COc1ncc(-c2cn(S(=O)(=O)Cc3ccccc3)c3ncccc23)cn1` [Compound 45, 3-(2-Methoxy-pyrimidin-5-yl)-1-phenylmethanesulfonyl-1H-pyrrolo[2,3-b]pyridine]: the IC50 in experiment [1], in experiment [2] and in experiment [3] was < 10 µM throughout.
As for `COc1ccc(-c2c[nH]c3ncccc23)cc1OCc1ccccc1` [Compound 89, 3-(3-Benzyloxy-4-methoxy-phenyl)-1H-pyrrolo[2,3-b]pyridine], the IC50 in experiment [2] and in experiment [3] was < 10 µM throughout.
On to `COc1ccc2c(c1)c(-c1ccc(OC)c(OC)c1)cn2S(=O)(=O)c1cccc2cc(C)cnc12` [Compound 94, 8-[3-(3,4-Dimethoxy-phenyl)-5-methoxy-indole-1-sulfonyl]-3-methyl-quinoline], for which the half-maximal inhibitory concentration (IC50) in experiment [2] and in experiment [3] was < 10 µM throughout.
On to `CCOc1ccc2ccccc2c1C(=O)n1cc(-c2cccc(C(=O)OC)c2)c2cccnc21` [Compound 120, 3-[1-(2-Ethoxy-naphthalene-1-carbonyl)-1H-pyrrolo[2,3-b]pyridin-3-yl]-benzoic acid methyl ester], for which the IC50 in experiment [2] and in experiment [3] was < 10 µM each time.
For the compound `COc1ccc(-c2cn(S(=O)(=O)c3ccccc3)c3ncccc23)cc1O` [Compound 141, 5-(1-Benzenesulfonyl-1H-pyrrolo[2,3-b]pyridin-3-yl)-2-methoxy-phenol], the half-inhibitory concentration (IC50) in experiment [2] and in experiment [3] was < 10 µM each time.
For `COc1cc(-c2cn(S(=O)(=O)c3ccccc3)c3ncccc23)ccc1OCc1cc(-c2ccccc2)no1` [Compound 125, 1-Benzenesulfonyl-3-[3-methoxy-4-(3-phenyl-isoxazol-5-ylmethoxy)-phenyl]-1H-pyrrolo[2,3-b]pyridine], the IC50 in experiment [2] and in experiment [3] was < 10 µM each time.
Consider `COc1ccc(-c2cn(C(=O)c3ccccc3Oc3ccccc3)c3ncccc23)cc1OC` [Compound 118, [3-(3,4-Dimethoxy-phenyl)-pyrrolo[2,3-b]pyridin-1-yl]-(2-phenoxy-phenyl)-methanone], for which the half-inhibitory concentration (IC50) in experiment [2] and in experiment [3] was < 10 µM throughout.
Consider `COc1ccc(-c2cn(C(=O)c3ccc(Cl)nc3)c3ncccc23)cc1OC` [Compound 107, (6-Chloro-pyridin-3-yl)-[3-(3,4-dimethoxy-phenyl)-pyrrolo[2,3-b]pyridin-1-yl]-methanone], for which the IC50 in experiment [2] and in experiment [3] was < 10 µM throughout.
As for `CCOC(=O)c1ccc(C#Cc2cn(S(=O)(=O)c3ccccc3)c3ncc(-c4ccc(OC)c(OC)c4)cc23)cc1` [Compound 135, 4-[1-Benzenesulfonyl-5-(3,4-dimethoxy-phenyl)-1H-pyrrolo[2,3-b]pyridin-3-ylethynyl]-benzoic acid ethyl ester], the IC50 in experiment [3] is < 10 µM.
